From the supplement of paper PMC5844555

Columns and labels:
Assay in all cases: 3' UTR reporter interaction score (median-centred robust z-score of log2 firefly/Renilla activity); higher = less repression of the 3' UTR reporter
Conditions in all cases: HEK293T; 48 h
MYT1L = system: MYT1L
Method in brief: (§1)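 A firefly luc2P reporter carrying the gene's 3' UTR (100 ng), Renilla pRL-TK control (20 ng) and miRNA mimic (2.5 pmol) were co-transfected with DharmaFECT Duo into HEK293T cells plated at 10,000/well in 96-well plates. Luciferase activities were read 48 h post-transfection. The interaction score is the log firefly/Renilla ratio as a per-plate robust z-score from median and median absolute deviation, median-centred per miRNA, and more negative indicates interaction. Values are averages of at least two independent screens.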

NOTCH1 = system: NOTCH1
Method in brief: as §1

HRAS = system: HRAS
Method in brief: as §1

RB1 = system: RB1
Method in brief: as §1

ZEB2 = system: ZEB2
Method in brief: as §1

PHF6 = system: PHF6
Method in brief: as §1

TP53 = system: TP53
Method in brief: as §1

EZH2 = system: EZH2
Method in brief: as §1

BRCA2 = system: BRCA2
Method in brief: as §1

FBXW7 = system: FBXW7
Method in brief: as §1

MYC = system: MYC
Method in brief: as §1

PHOX2B = system: PHOX2B
Method in brief: as §1

MYCN = system: MYCN
Method in brief: as §1

MYB = system: MYB
Method in brief: as §1

| Sequence | 3' UTR reporter interaction score (MYT1L) | 3' UTR reporter interaction score (NOTCH1) | 3' UTR reporter interaction score (HRAS) | 3' UTR reporter interaction score (RB1) | 3' UTR reporter interaction score (ZEB2) | 3' UTR reporter interaction score (PHF6) | 3' UTR reporter interaction score (TP53) | 3' UTR reporter interaction score (EZH2) | 3' UTR reporter interaction score (BRCA2) | 3' UTR reporter interaction score (FBXW7) | 3' UTR reporter interaction score (MYC) | 3' UTR reporter interaction score (PHOX2B) | 3' UTR reporter interaction score (MYCN) | 3' UTR reporter interaction score (MYB) |
| --- | --- | --- | --- | --- | --- | --- | --- | --- | --- | --- | --- | --- | --- | --- |
| CCACUGCCCCAGGUGCUGCUGG | 1.35 | -1.62 | -0.594 | 0.0205 | -1.03 | 0.422 | -1.28 | -0.183 | -0.289 | -0.902 | 0.494 | 0.479 | 0.562 | 0 |
| UGUCAGUUUGUCAAAUACCCC | 0.484 | 0.533 | 0.221 | 0.229 | 1.58 | -0.327 | -1.17 | -0.235 | -0.428 | -3.7 | 0.119 | 1.35 | 0.673 | 0.7 |
| UAAGUGCUUCCAUGUUUUGGUGA | -1.44 | 1.18 | -0.478 | 1.03 | 1.55 | 0.733 | -0.0784 | -0.457 | -0.208 | 0.567 | -0.0521 | 0.453 | 0.317 | -1.01 |
| UGUCUGCCCGCAUGCCUGCCUCU | 0.694 | -0.629 | -2.78 | 0.711 | -0.366 | 1.55 | -0.199 | 1.24 | 0.911 | 0.234 | -0.223 | -1.69 | -1.48 | -1.11 |
| ACUCAAAACCCUUCAGUGACUU | -0.111 | 0.701 | -0.68 | -0.026 | 0.456 | 1.5 | 1.13 | 0.495 | 0.794 | 0.994 | -0.294 | -0.184 | -0.913 | -1.17 |
| GAGCCAGUUGGACAGGAGC | 0.521 | -0.874 | 0.00377 | -0.775 | -0.65 | -1.97 | 1 | -0.353 | -1.34 | 0.107 | -0.0272 | 0.261 | 0.298 | 0.363 |
| AAAGUGCAUCCUUUUAGAGGUUU | -1.16 | 1.67 | -0.233 | -0.148 | 0.526 | -0.0516 | 0.429 | -0.589 | -0.233 | 0.961 | -0.372 | 0.434 | 0.904 | -1.97 |
| AGUGGUUUUACCCUAUGGUAG | 1.52 | -0.395 | -0.669 | 1.79 | -0.644 | 1.32 | -3.34 | 0.908 | -2.62 | -0.0104 | 0.603 | 1.56 | 0.551 | 2.26 |
| AGCUCGGUCUGAGGCCCCUCAG | 3.65 | 1.23 | 0.284 | 3.69 | 2.05 | 0.229 | 0.0655 | -0.671 | 1.86 | 0.253 | -0.504 | -1.22 | -0.643 | 0.304 |
| UCUGGCUCCGUGUCUUCACUCC | 1.3 | -2.05 | 1.54 | 0.119 | 1.83 | -0.567 | 0.211 | 0.8 | 0.156 | -0.481 | -0.629 | 1.22 | 1.42 | -1.3 |
| UCACAAUGCUGACACUCAAACUGCUGAC | 0.647 | -0.0831 | -0.335 | -0.143 | -1.11 | 0.399 | -0.424 | 0.195 | -3.53 | 0.257 | 0.447 | 0.242 | -0.126 | -0.419 |
| GAGCUUAUUCAUAAAAGUGCAG | -2.82 | -0.458 | 0.562 | 2.05 | -1.29 | -0.038 | -1.36 | 0.564 | 0.117 | -1.75 | 1.07 | -0.299 | 0.314 | 0.663 |
| UGGCUCAGUUCAGCAGGAACAG | 0.53 | -1.7 | -1.16 | 0.0253 | 0.984 | -0.0264 | 0.345 | -0.274 | 1.1 | -0.156 | -2.14 | 0.0378 | 0.921 | 0.0413 |
| AGGGGGAAAGUUCUAUAGUCCU | -0.154 | -1.57 | 0.225 | 0.755 | 2.84 | 1.82 | -0.601 | -1.49 | -1.55 | 0.691 | -1.56 | 1.33 | 0.426 | 1.55 |
| CAUCCCUUGCAUGGUGGAGGGU | -1.78 | 0.0724 | -0.474 | -1.51 | -1.03 | -0.203 | 0.105 | 0.459 | -0.755 | -2.06 | 0.286 | -0.0949 | 1.03 | 0.193 |
| UAAACGUGGAUGUACUUGCUUU | -0.58 | 0.553 | -0.799 | 0.153 | 0.846 | -1.71 | 0.196 | 0.463 | 0.489 | 0.998 | -1.34 | -0.628 | -0.319 | -0.172 |
| UACAGUACUGUGAUAACUGAAG | 0.686 | -1.33 | 0.843 | 0.982 | -0.268 | -0.261 | -0.59 | -3.4 | 0.0293 | -3.92 | 0.128 | 0.00398 | -3.49 | 0.694 |
| GUCCGCUCGGCGGUGGCCCA | 0.878 | 0.197 | 0.202 | -0.471 | 0.167 | 0.23 | 0.883 | 0.465 | -0.044 | -0.455 | -0.572 | 0.167 | -0.651 | 0.218 |
| GUCAACACUUGCUGGUUUCCUC | -2.13 | -0.696 | -1.53 | 0.731 | -0.604 | 0.545 | -0.391 | 1.25 | 1.05 | 1.04 | 1.11 | -0.934 | -0.83 | -0.366 |
